From article PMC8901439 (Molecular Cell, 2022)

Key:
Assay type in all cases: biochemical
[1] = biological target: T1, Dnmt1 (Mus musculus, UniProt P13864, N1580A); assay: single-turnover azidoalkylation kinetics on hemimethylated 25-mer DNA
[2] = biological target: T2, Dnmt1 (Mus musculus, UniProt P13864, R1576A/N1580A); assay: as above
[3] = biological target: Dnmt1 (Mus musculus, UniProt P13864); assay: single-turnover methylation kinetics on hemimethylated 25-mer DNA
[4] = biological target: T1, Dnmt1; assay: as above
[5] = biological target: T2, Dnmt1; assay: as above

T1 sequence (P13864 291-1620 N1580A): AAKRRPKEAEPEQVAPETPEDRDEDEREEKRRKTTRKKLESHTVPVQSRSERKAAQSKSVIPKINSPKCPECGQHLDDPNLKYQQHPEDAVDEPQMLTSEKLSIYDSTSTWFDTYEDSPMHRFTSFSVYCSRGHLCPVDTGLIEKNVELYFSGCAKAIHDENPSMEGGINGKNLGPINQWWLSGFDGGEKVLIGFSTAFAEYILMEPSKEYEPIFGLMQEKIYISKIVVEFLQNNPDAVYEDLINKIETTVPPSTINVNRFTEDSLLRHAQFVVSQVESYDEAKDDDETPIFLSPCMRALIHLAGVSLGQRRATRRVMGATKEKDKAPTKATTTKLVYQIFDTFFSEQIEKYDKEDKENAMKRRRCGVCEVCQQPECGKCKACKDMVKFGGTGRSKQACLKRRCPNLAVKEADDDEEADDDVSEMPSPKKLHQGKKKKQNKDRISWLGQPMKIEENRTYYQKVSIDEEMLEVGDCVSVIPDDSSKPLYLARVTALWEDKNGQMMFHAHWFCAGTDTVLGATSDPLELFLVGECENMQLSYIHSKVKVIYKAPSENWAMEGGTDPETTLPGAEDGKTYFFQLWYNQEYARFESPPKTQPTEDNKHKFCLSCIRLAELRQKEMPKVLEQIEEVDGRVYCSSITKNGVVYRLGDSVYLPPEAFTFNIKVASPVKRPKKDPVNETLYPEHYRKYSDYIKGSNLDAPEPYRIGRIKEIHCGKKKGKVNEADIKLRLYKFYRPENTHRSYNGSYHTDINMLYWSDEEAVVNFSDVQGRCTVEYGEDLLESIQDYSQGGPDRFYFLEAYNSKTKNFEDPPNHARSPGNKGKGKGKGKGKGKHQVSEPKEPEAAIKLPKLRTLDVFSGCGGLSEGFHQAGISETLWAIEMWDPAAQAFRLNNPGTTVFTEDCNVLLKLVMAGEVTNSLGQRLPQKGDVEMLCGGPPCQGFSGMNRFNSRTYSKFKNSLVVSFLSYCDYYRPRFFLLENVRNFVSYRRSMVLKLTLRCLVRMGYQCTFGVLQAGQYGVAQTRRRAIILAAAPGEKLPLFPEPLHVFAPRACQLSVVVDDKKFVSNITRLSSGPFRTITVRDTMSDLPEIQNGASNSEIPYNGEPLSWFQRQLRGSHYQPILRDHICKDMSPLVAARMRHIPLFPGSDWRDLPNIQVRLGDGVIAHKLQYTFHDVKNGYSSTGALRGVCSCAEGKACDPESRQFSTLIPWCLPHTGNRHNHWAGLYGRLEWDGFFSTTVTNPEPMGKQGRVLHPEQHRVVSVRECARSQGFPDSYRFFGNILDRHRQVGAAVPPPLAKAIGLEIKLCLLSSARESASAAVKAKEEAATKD
T2 sequence (P13864 291-1620 R1576A/N1580A): as the sequence (P13864 291-1620 N1580A) above, with R1286A counted along it
Dnmt1 (Mus musculus, UniProt P13864), sequence (P13864 291-1620): as the sequence (P13864 291-1620 N1580A) above, with A1290N counted along it

| SMILES | kchem^Ado-6-azide azidoalkylation / min^-1 [1] | kchem^Ado-6-azide azidoalkylation / min^-1 [2] | kchem^AdoMet methylation / min^-1 [3] | kchem^AdoMet methylation / min^-1 [4] | kchem^AdoMet methylation / min^-1 [5] |
| --- | --- | --- | --- | --- | --- |
| [N-]=[N+]=NCCCC#CC[S+](CC[C@H](N)C(=O)O)C[C@H]1O[C@@H](n2cnc3c(N)ncnc32)[C@H](O)[C@@H]1O (mixture of isomers) [Ado-6-azide] | 1.4 ± 0.13 min⁻¹ | 0.27 ± 0.025 min⁻¹ |  |  |  |
| C[S+](CC[C@H](N)C(=O)[O-])C[C@H]1O[C@@H](n2cnc3c(N)ncnc32)[C@H](O)[C@@H]1O (some centres unmarked) [AdoMet] |  |  | 3.0 ± 0.13 min⁻¹ | 0.104 ± 0.002 min⁻¹ | 0.035 ± 0.002 min⁻¹ |
